Patent publication US11638723B2, “Method for generating T cells progenitors” (Assistance Publique—Hopitaux de Paris, priority 2017, dated 2023)

Experiments:
[1] = target: T1, Aryl hydrocarbon/Dioxin receptor (AhR) (Homo sapiens, UniProt P35869); settings: cited from earlier work
T1 sequence (P35869 11-848): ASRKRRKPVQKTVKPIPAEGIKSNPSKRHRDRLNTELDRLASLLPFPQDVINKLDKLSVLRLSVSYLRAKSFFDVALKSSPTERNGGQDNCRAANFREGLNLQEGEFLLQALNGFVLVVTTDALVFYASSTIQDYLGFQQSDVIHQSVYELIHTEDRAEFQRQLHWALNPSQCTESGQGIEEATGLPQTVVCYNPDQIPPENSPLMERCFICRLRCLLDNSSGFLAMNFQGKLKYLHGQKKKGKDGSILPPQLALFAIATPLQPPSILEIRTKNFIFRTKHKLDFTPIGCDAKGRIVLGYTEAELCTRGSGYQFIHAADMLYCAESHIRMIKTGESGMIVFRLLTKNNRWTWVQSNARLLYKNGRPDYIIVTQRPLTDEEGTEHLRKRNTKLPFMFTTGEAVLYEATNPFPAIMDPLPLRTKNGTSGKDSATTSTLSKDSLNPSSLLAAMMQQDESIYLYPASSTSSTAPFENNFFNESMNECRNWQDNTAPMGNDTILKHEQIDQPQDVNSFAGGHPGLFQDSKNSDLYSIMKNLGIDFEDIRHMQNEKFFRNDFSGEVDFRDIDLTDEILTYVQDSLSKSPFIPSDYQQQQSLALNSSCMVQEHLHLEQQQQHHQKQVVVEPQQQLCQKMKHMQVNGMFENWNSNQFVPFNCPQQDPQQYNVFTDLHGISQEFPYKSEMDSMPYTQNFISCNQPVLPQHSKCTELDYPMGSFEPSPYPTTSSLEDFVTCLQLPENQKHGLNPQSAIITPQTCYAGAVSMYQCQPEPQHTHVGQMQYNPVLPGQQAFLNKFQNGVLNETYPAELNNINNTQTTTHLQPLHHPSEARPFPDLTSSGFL

DL-4 T-cell precursors = test: Analysis of T cell receptor rearrangement; format: cell-based, human
Method: TCR gene rearrangement analysis was performed in duplicate and on the two independently purified subsets (average is shown). TCR-δ quantification (D δ2-D δ3, D δ2-J δ1, and D δ3-J δ1) was performed with the listed sets of primers and probes. The analysis of TCR rearrangements by multiplex fluorescent PCR was performed by separation of fluorochrome-labeled single stand PCR products in a capillary sequencing polymer and detected via automated laser scanning.

[2] = tested on: CD34+ cells from cord blood; test: DL-4 culture of CD34+ cells, T-cell precursor generation (flow cytometry); format: cell-based, human; settings: FIG. 9
Method: CD34+ cells from human CB or mobilized peripheral blood samples were cultured in 24-well plates or 6-well plates that had been coated with recombinant human fibronection (RetroNectin®, Clontech/Takara) and DL-4 (5 μg/ml, PX'Therapeutics, Grenoble, France). Coating was performed for 2 h at 37° C., DL-4 coated wells were then blocked with bovine serum albumin 2% (BSA) in phosphate-buffered saline (PBS) for 30 minutes at 37° C. and washed with PBS. […] Cultured cells were analyzed by fluorescence-activated cell sorting (FACS) after 3 and 7 days of culture on DL-4 respectively to exclude CD34-/CD7-myeloid cells from subsequent analyses.
Human cells were stained and analyzed using a Gallios analyzer (Beckman Coulter, Krefeld, Germany). […] The data were analyzed using FlowJo software (Treestar, Ashland, Oreg.) after gating on viable, 7AAD-negative cells.
The data were analyzed using FlowJo software (version 10.2, Treestar, Ashland, Oreg.) after gating on viable, 7AAD-negative cells.

Structure (SMILES) | IC50 [1] | TCRdelta rearrangements (DL-4 T-cell precursors; CB cells) | signs of TCR rearrangement (DL-4 T-cell precursors; after 7 days of culture) | T-cell differentiation, CD5+CD7+ cells at day 7 [2]
Cc1ccccc1N=Nc1ccc(NC(=O)c2ccnn2C)c(C)c1 [CH 223191] | 30 nM |  |  | 
CC(C)n1cnc2c(NCCc3ccc(O)cc3)nc(-c3csc4ccccc34)nc21 [SR1, 4-(2-(2-(Benzo[b]thiophen-3-yl)-9-isopropyl-9H-purin-6-ylamino)ethyl)phenol] |  | Detection of D52-D53 rearrangements | do not exhibit any signs of TCR rearrangement | accelerates T-cell differentiation
